{"source": "patent US11919856B2", "about": "“Compounds” (UCL BUSINESS LTD, priority 2018, dated 2024)", "key": {"ChromLogD": {"assay": "ChromLogD", "type": "physicochemical"}, "Z α1-antitrypsin [1]": {"biological_target": "T1, Z α1-antitrypsin (Homo sapiens, UniProt P01009, E366K/V237A)", "T1 sequence (P01009 25-418 V237A/E366K)": "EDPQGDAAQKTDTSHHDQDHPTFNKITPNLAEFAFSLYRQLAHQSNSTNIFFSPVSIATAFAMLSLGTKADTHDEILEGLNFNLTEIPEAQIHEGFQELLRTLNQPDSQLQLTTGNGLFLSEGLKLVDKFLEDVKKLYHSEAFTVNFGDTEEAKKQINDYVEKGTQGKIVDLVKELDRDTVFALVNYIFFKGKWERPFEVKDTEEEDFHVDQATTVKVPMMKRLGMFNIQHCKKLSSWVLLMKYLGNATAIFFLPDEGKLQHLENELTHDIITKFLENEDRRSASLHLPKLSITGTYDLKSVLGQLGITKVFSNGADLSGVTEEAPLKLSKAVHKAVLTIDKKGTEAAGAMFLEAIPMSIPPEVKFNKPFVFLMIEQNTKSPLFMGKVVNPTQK", "assay": "Biochemical competition binding assay (TR-FRET), Z α1-antitrypsin", "design": "a random insertion of the human Z α1-antitrypsin gene; from tissue; host or cells: liver and plasma of Z α1-antitrypsin transgenic mice (human Z transgene)", "conditions": "competition binding with fluorescently labelled derivative; read-out: affinity (KD) to Z α1-antitrypsin", "method": "(§1) Alpha1-antitrypsin was purified from the plasma of ZZ and MM α1-antitrypsin homozygotes as described in Lomas et al., Biochemistry. 1993; 32:500-8. Recombinant Cys232Ser α1-antitrypsin was expressed and purified as detailed in Irving et al. Methods Enzymol. 2011; 501:421-66 and Haq et al. Biosci Rep. 2013; 33(3):e00046.\n(§2) A fluorescent derivative of compound 1 was prepared by derivatizing compound 1 at its ring nitrogen atom with an Alexa Fluor 488 label via a short organic linker group.\n(§3) A serial dilution of test compounds in DMSO was diluted 25-fold with assay buffer, and 2.5 μl of this intermediate dilution transferred to a black, low-volume 384-well microtitre plate (Greiner BioOne; product no. 784076). […]\n(§4) Plates were sealed and incubated overnight at room temperature, or for 3 days at 4° C. then 6 hours at room temperature. […] The TR-FRET signal was read on an Envision plate reader, by excitation of Terbium at 337 nm and detection of emission at 520 nm and 495 nm.\n(§5) Dissociation constants (KD) for the affinity of compounds to Z-a1AT or M-a1AT protein were derived from the pIC50 values according to the Cheng-Prusoff equation, taking into account the concentration of fluorescent ligand used in relation to its affinity as determined in independent Fluorescence Polarisation and TR-FRET experiments: KD(compound)=10^−pIC50(compound)/([…]. Compound Association Experiments"}, "human serum albumin": {"biological_target": "human serum albumin (Homo sapiens, UniProt P02768)", "sequence (P02768 25-609)": "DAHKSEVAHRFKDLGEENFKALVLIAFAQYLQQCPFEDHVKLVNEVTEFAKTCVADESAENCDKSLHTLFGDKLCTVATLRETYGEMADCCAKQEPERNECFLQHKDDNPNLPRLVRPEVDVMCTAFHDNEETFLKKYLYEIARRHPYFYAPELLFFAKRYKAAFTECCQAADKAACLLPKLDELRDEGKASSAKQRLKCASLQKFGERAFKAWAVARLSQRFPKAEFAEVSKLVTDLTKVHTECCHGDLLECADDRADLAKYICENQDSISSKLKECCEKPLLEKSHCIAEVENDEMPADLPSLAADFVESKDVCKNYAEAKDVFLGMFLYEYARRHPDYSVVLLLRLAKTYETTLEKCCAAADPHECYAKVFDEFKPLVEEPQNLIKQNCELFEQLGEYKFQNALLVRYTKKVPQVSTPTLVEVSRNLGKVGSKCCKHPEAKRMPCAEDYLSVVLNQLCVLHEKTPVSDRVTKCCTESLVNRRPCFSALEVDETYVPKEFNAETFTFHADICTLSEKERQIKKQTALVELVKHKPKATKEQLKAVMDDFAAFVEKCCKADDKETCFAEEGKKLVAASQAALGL", "assay": "Binding to human serum albumin", "type": "in vitro ADME"}, "Solubility in FaSSIF": {"assay": "Solubility in FaSSIF", "type": "physicochemical"}, "[2]": {"assay": "Panel of in vitro assays for off-targets predictive of safety liabilities", "description": "In order to investigate suitability of Compound 1 for progression into in vivo studies and the potential for taking forward as a clinical candidate for testing in human, Compound 1 was profiled against a panel of in vitro assays for off-targets considered predictive of potential safety liabilities. […] The measured potency of these marginal activities were at least 10-fold below the cellular activity of Compound 1 at blocking Z α1-antitrypsin polymerisation (pEC50 6.3). Loss of inhibitory activity represents a means by which possible off-target engagement with other serpins can be evaluated. However in contrast to α1-antitrypsin upon incubation with 50 μM Compound 1 the inhibitory activity of the homologues antithrombin, neuroserpin and antichymotrypsin was not affected."}, "M α1-antitrypsin": {"biological_target": "T2, M α1-antitrypsin (Homo sapiens, UniProt P01009)", "T2 construct": "Alpha1-antitrypsin was purified from the plasma of ZZ and MM α1-antitrypsin homozygotes; from tissue; host or cells: plasma of MM homozygotes", "T2 sequence (P01009 25-418)": "as the sequence (P01009 25-418 V237A/E366K) above, with A213V, K342E counted along it", "assay": "Biochemical competition binding assay (TR-FRET), M α1-antitrypsin", "conditions": "selectivity Z over M", "method": "as §1, §2, §3, §4, §5"}, "Permeability": {"assay": "Permeability", "type": "in vitro ADME"}, "α1-antitrypsin": {"tested_on": "α1-antitrypsin", "assay": "End-point constant-temperature heat-induced polymerisation assay (non-denaturing PAGE)", "type": "biochemical, human", "conditions": "constant-temperature experiment, versus absence", "method": "Resistance to heat-induced polymerisation was also determined using an end-point constant-temperature assay. Plasma purified M and Z α1-antitrypsin were diluted to 0.2 mg/ml in PBS with 5% v/v glycerol, incubated with 10 μM Compound 1 (or with DMSO alone) for 2 hours and then heated in 20 μl aliquots for a further 4 hours in a thermal cycler with a 48-65° C. gradient applied across the plate. Samples were analysed on a 3-12% w/v acrylamide Bis-Tris Native-PAGE gel (Life Technologies).\nPolymerisation of α1-antitrypsin occurs from a transient intermediate state known as M*, that is readily populated by the Z variant. One of the hallmarks of M* is its recognition by environment-sensitive fluorescent reporter dyes. Thermal shift assays that make use of the dye SYPRO Orange report the stability of the protein native state against heat-induced unfolding. […] Native state stability can also be probed by equilibrium unfolding using chemical denaturants, where a peak in bis-ANS fluorescence corresponds with a maximally populated unfolding intermediate."}, "Z α1-antitrypsin [3]": {"biological_target": "T1, Z α1-antitrypsin", "assay": "Stoichiometry of inhibition against chymotrypsin, Z α1-antitrypsin", "type": "biochemical", "conditions": "Z α1-antitrypsin pre-incubated with compound", "method": "Mutations that interfere with the opening of […] or that perturb its interaction with the N-terminal portion of the reactive centre loop alter the ability of serpins to inhibit target proteases. The stoichiometry of inhibition (SI) was determined for M and Z α1-antitrypsin in discontinuous experiments against a model target protease, chymotrypsin. The pre-incubation of both variants with Compound 1 led to a >98% loss of protease inhibitory activity. […] To investigate whether this activity was consistent with action as a chemical chaperone, M and Z α1-antitrypsin were unfolded in vitro into 6 M guanidine hydrochloride, and rapidly refolded by snap dilution into denaturant-free buffer in the presence or absence of Compound 1."}}}
{"smiles": "CCC[C@@H](NC(=O)c1cccc2c1CC(=O)N2)[C@@H](O)c1cccc(F)c1C", "note": "[Compound 1, N-[(1S,2R)-1-(3-fluoro-2-methylphenyl)-1-hydroxypentan-2-yl]-2-oxo-2,3-dihydro-1H-indole-4-carboxamide]", "values": [{"measurement": "ChromLogD (pH7.4)", "setting": "ChromLogD", "value": 3.8}, {"measurement": "Kd", "setting": "Z α1-antitrypsin [1]", "value": 1.5, "unit": "nM"}, {"measurement": "binding to human serum albumin", "setting": "human serum albumin", "value": 84.2, "unit": "%"}, {"measurement": "solubility of amorphous drug substance in FaSSIF", "setting": "Solubility in FaSSIF", "value": "good solubility"}, {"measurement": "activity against off-target panel", "setting": "[2]", "value": "inactive against the majority of these targets"}, {"measurement": "marginal activities in off-target panel", "setting": "[2]", "value": "low level of activity close to the lower limit of sensitivity in 16 assays"}, {"measurement": "potency of marginal off-target activities below cellular activity", "setting": "[2]; relative to cellular activity at blocking Z α1-antitrypsin polymerisation", "value": "at least 10 fold"}, {"measurement": "fold lower affinity for plasma-purified wild-type M α1-antitrypsin", "setting": "M α1-antitrypsin", "value": "at least 50 fold"}, {"measurement": "Permeability", "setting": "Permeability", "value": "high"}, {"measurement": "temperature at which oligomers are generated", "setting": "α1-antitrypsin", "value": "higher temperatures"}, {"measurement": "loss of protease inhibitory activity", "setting": "Z α1-antitrypsin [3]", "value": "> 98", "unit": "%"}]}
